One assay addresses PDK1 (Homo sapiens (Human), UniProt O15530). Description: PDK1 kinase assay (coupled PDK1/AKT/FAM-crosstide assay, IMAP fluorescence polarization). It counts as biochemical. An outline of the steps:
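GST-tagged human PDK1 (aa 51-359, 0.75 nM) from insect cells activated unphosphorylated GST-AKT2 (aa 140-467–PIFtide fusion, 10 nM), which phosphorylated 100 nM FAM-crosstide; 40 μM ATP, pH 7.2 Tris/MgCl2, 30 min at 25° C. IMAP fluorescence polarization read-out; ΔmP versus compound concentration fitted with a 4-parameter curve.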
(In general: In fluorescence polarisation assays a small probe gives low polarisation when free and higher when bound to something large.)

Assay [1] deals with phospho-akt (Thr308) in PC-3 cells. Briefly: Inhibition of phospho-akt (Thr308) in PC-3 cells, MSD phospho-akt 308 ELISA kit. It counts as cell-based. The following applies: Homo sapiens, 2 hours, no serum, read-out: EC50. An outline of the steps:
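Electrochemiluminescent MSD ELISA of Thr308-phosphorylated Akt after a 2 h serum-free compound exposure of PC-3 cells (15,000/well, plated overnight). Controls: DMSO (high), 5 μM wortmannin (low). Lysate binding overnight at 4 °C; detection antibody 1 h at room temperature.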
In general terms: In an ELISA, binding on a coated surface is turned into a signal by an enzyme label.

Setting [2] is: inhibition of phospo-PDK1 in vitro.
Where [3] appears, read: inhibition of P308 Akt in PC-3 cells, MSD.
The mark [4] stands for this setting: inhibition of P308 Akt in PC-3 cells using MSD.

Where a name gives a salt, the structure may show the parent alone. Read-outs that look alike come from different tables or passages of the source.

Chain of PDK1 (O15530 51-359): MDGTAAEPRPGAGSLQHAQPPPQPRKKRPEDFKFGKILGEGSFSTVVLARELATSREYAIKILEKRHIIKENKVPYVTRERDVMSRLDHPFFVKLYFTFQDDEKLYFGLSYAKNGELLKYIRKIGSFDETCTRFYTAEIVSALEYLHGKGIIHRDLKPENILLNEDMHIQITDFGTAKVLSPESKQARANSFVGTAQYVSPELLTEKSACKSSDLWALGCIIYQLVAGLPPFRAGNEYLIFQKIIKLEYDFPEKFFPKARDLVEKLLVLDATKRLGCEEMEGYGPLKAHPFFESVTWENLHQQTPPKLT

On to `CC(C)Oc1cc(CNc2ncccc2C(=O)NCc2ccc(F)c(F)c2)cc(-c2c[nH]c3ncc(C(=O)NC4CC4)cc23)c1` [Example 4.1.3, N-cyclopropyl-3-{3-[({3-[(3,4-difluoro-benzyl)carbamoyl]pyridin-2-yl}amino)methyl]-5-(propan-2-yloxy)phenyl}-1H-pyrrolo[2,3-b] pyridine-5-carboxamide], for which the IC50 (in general, the concentration that gives 50% inhibition) against PDK1 (setting [2]) is less than 100 nM. Further, the half-maximal effective concentration (EC50) (in general, the concentration that produces a half-maximal response) in assay [1] (setting [3]) was less than 1000 nM.
In the case of `Nc1ncc(-c2ccc(CNc3ncc(C(F)(F)F)cc3C(=O)Nc3ccc(F)cc3)cc2)nc1C(=O)N1CCNCC1` [Example 220, 2-{4-[5-Amino-6-(piperazine-1-carbonyl)-pyrazin-2-yl]-benzylamino}-N-(4-fluoro-phenyl)-5-trifluoromethyl-nicotinamide], at PDK1 (inhibition of PDK1 in vitro), the IC50 is less than 100 nM. In addition, the EC50 in assay [1] (setting [4]) was 1000 to 10000 nM.
For the molecule `CNc1ncc(-c2ccc(CNc3ncc(C#N)cc3C(=O)N[C@@H](C)c3ccc(F)cc3)cc2)cc1F` [Example 109], on PDK1 (inhibition of PDK1 in vitro), the IC50 was more than 5000 nM. Moreover, the EC50 in assay [1] (setting [4]) is more than 10000 nM.
At PDK1 (inhibition of PDK1 in vitro), `Nc1ncc(-c2ccc(CNc3ncc(C(F)(F)F)cc3C(=O)Nc3ccc(F)cc3)cc2)nc1O[C@@H]1CCNC1` [Example 159, 2-{4-[5-Amino-6-((R)-pyrrolidin-3-yloxy)-pyrazin-2-yl]-benzylamino}-N-(4-fluoro-phenyl)-5-trifluoromethyl-nicotinamide] displayed an IC50 of less than 100 nM. In addition, the EC50 in assay [1] (setting [4]) was less than 1000 nM.
Regarding `Nc1ncnc2ccc(-c3ccc(CNc4ncc(S(=O)(=O)NCc5ccccc5)cc4C(=O)NCc4ccc(F)c(F)c4)s3)cc12` [Example 8.6.7, 2-(((5-(4-aminoquinazolin-6-yl)thiophen-2-yl)methyl)amino)-5-(N-benzylsulfamoyl)-N-(3,4-difluorobenzyl) nicotinamide], the IC50 against PDK1 (setting [2]) fell in the range of 100 to 1000 nM. Besides, the EC50 in assay [1] (setting [3]) was more than 10000 nM.
In the case of `C[C@H](NC(=O)c1cc(C#N)cnc1NCc1ccc(-c2cnc(N)c(C(=O)NCCN(C)C)n2)cc1)c1ccc(F)cc1` [Example 212], the IC50 against PDK1 (inhibition of PDK1 in vitro) is less than 100 nM. The EC50 in assay [1] (setting [4]) is less than 1000 nM.
The matching figures for `NC(=O)c1cc(CNc2ncccc2C(=O)NCc2ccc(F)c(F)c2)ccc1-n1ccnc1` [Example 50, 2-(3-carbamoyl-4-(1H-imidazol-1-yl)benzylamino)-N-(3,4-difluorobenzyl)nicotinamide]: more than 5000 nM and more than 10000 nM.
On PDK1 (setting [2]), `C[C@H](NC(=O)c1nccnc1NCc1ccc(-c2cc3c(N)ncnc3cn2)s1)c1ccc(F)c(F)c1` [Example 3.78, 3-({[5-(4-aminopyrido[3,4-d]pyrimidin-6-yl)thiophen-2-yl]methyl}amino)-N-[(1S)-1-(3,4-difluorophenyl)ethyl] pyrazine-2-carboxamide (TFA salt)] gave an IC50 of 100 to 1000 nM. For the same molecule, in assay [1] (setting [3]), the EC50 was less than 1000 nM.
In the case of `Cn1cnc2cnc3ccc(-c4ccc(CNc5ncc(C#N)nc5C(=O)NCc5ccc(F)c(F)c5)s4)cc3c21` [Example 3.81, 6-cyano-N-(3,4-difluorobenzyl)-3-(((5-(1-methyl-1H-imidazo [4,5-c]quinolin-8-yl)thiophen-2-yl)methyl)amino)pyrazine-2-carboxamide (TFA salt)], at PDK1 (setting [2]), the concentration for half-maximal inhibition (IC50) is less than 100 nM. For the same molecule, in assay [1] (setting [3]), the EC50 was less than 1000 nM.
Molecule `Nc1ncnc2ccc(-c3ccc(CNc4ncc(Br)cc4C(=O)NCc4ccc(F)c(F)c4)s3)cc12` [Ex. 8.9, 2-({[5-(4-aminoquinazolin-6-yl)thiophen-2-yl]methyl}amino)-N-(3,4-difluorobenzyl)-5-bromopyridine-3-carboxamide] showed a half-inhibitory concentration (IC50) against PDK1 (setting [2]) of less than 100 nM. In addition, the EC50 in assay [1] (setting [3]) is less than 1000 nM.
At PDK1 (inhibition of PDK1 in vitro), `C[C@H](NC(=O)c1cc(C#N)cnc1NCc1ccc(-c2cnc3[nH]ncc3c2)cc1)c1ccc(F)c(F)c1` [Example 395, 5-Cyano-N-[(S)-1-(3,4-difluoro-phenyl)-ethyl]-2-[4-(1H-pyrazolo[3,4-b]pyridin-5-yl)-benzylamino]-nicotinamide] came in with an IC50 of less than 100 nM. For the same molecule, the concentration for a half-maximal effect (EC50) in assay [1] (setting [4]) was less than 1000 nM.
On to `O=C(NCc1ccc(F)cc1)c1cccnc1NCc1ccc(-c2cnc3[nH]c(=O)[nH]c3c2)cc1` [Example 360, N-(4-fluorobenzyl)-2-(4-(2-oxo-2,3-dihydro-1H-imidazo [4,5-b]pyridin-6-yl)benzyl-amino)nicotinamide], for which the IC50 against PDK1 (inhibition of PDK1 in vitro) is less than 100 nM. In addition, the EC50 in assay [1] (setting [4]) was less than 1000 nM.
`C[C@@H](Nc1ncc(C(F)(F)F)cc1C(=O)Nc1ccc(F)cc1)c1ccc(-c2cnc3[nH]nc(N)c3n2)cc1` [Example 412, 2-{(R)-1-[4-(3-Amino-1H-pyrazolo[3,4-b]pyrazin-5-yl)-phenyl]-ethylamino}-N-(4-fluoro-phenyl)-5-trifluoromethyl-nicotinamide] came in with an IC50 at PDK1 (inhibition of PDK1 in vitro) of less than 100 nM. In addition, the EC50 in assay [1] (setting [4]) lay within 1000 to 10000 nM.
As to `CC(C)Oc1cc(CNc2ncccc2C(=O)NCc2ccc(F)c(F)c2)cc(-c2c[nH]c3ncccc23)c1` [Example 5.7, N-(3,4-difluorobenzyl)-2-(3-isopropoxy-5-(1H-pyrrolo[2,3-b]pyridin-3-yl)benzylamino)nicotinamide], at PDK1 (setting [2]), the IC50 is less than 100 nM. For the same molecule, the EC50 in assay [1] (setting [3]) lay in the range of 1000 to 10000 nM.
Consider `N#Cc1cnc(NCc2ccc(-c3c[nH]c4ncnc(N)c34)cc2)c(-c2ncco2)c1` [Example 43, 6-(4-(4-amino-7H-pyrrolo[2,3-d]pyrimidin-5-yl)benzylamino)-5-(oxazol-2-yl)nicotinonitrile], for which the IC50 against PDK1 (inhibition of PDK1 in vitro) was 1000 to 5000 nM. The EC50 in assay [1] (setting [4]) was 1000 to 10000 nM.
On to `C[C@H](NC(=O)c1cc(C#N)cnc1NCc1ccc(-c2cnc(N)c(C(=O)NCCO)c2)cc1)c1ccc(F)cc1` [Example 204, (S)-2-amino-5-(4-((5-cyano-3-(1-(4-fluorophenyl)ethylcarbamoyl)pyridin-2-ylamino)methyl)phenyl)-N-(2-hydroxyethyl) nicotinamide], for which the IC50 on PDK1 (inhibition of PDK1 in vitro) is less than 100 nM. Moreover, in assay [1] (setting [4]), the EC50 is less than 1000 nM.
`C[C@H](NC(=O)c1cc(C#N)cnc1NCc1ccc(-c2ccc(N)nc2)nc1)c1ccc(F)cc1` [Example 68, 2-[(6′-Amino-[2,3′]bipyridinyl-5-ylmethyl)-amino]-5-cyano-N-[(S)-1-(4-fluoro-phenyl)-ethyl]-nicotinamide] showed an IC50 at PDK1 (inhibition of PDK1 in vitro) of less than 100 nM. In addition, in assay [1] (setting [4]), the EC50 was 1000 to 10000 nM.
Regarding `C[C@H](NC(=O)c1cccnc1NCc1ccc(-c2ccc3ncc(N)nc3c2)s1)c1ccc(F)c(F)c1` [Example 4.30, (S)-2-(((5-(3-aminoquinoxalin-6-yl)thiophen-2-yl)methyl)amino)-N-(1-(3,4-difluorophenyl)ethyl) nicotinamide], the half-inhibitory concentration (IC50) on PDK1 (setting [2]) lay within 100 to 1000 nM. Also, the EC50 in assay [1] (PC-3, 2 h, inhibition of P308 Akt in PC-3 cells, MSD) is 1000 to 10000 nM.
On PDK1 (inhibition of PDK1 in vitro), `N#Cc1ccc(NC(=O)c2nc(C#N)cnc2NCc2ccc(-c3cnc4[nH]nc(N)c4c3)cc2)cc1` [Example 425, 3-(4-(3-amino-1H-pyrazolo[3,4-b]pyridin-5-yl)benzylamino)-6-cyano-N-(4-cyanophenyl) pyrazine-2-carboxamide] returned a half-maximal inhibitory concentration (IC50) of less than 100 nM. In addition, the EC50 in assay [1] (setting [4]) is less than 1000 nM.
The molecule `O=C(NCc1ccc(F)c(F)c1)c1cccnc1NCc1ccc(-c2ccc3ncnc(NCC(F)(F)F)c3c2)s1` [Example 4.22, N-(3,4-difluorobenzyl)-2-(((5-(4-(2,2,2-trifluoroethylamino)quinazolin-6-yl)thiophen-2-yl)methyl)amino)nicotinamide] showed an IC50 at PDK1 (setting [2]) of 100 to 1000 nM. The EC50 in assay [1] (setting [3]) was 1000 to 10000 nM.
Turning to `N#Cc1cnc(NCc2ccc(-c3c[nH]c4ncnc(N)c34)cc2)c(-c2nccs2)c1` [Example 352], the IC50 against PDK1 (inhibition of PDK1 in vitro) was less than 100 nM. Moreover, in assay [1] (setting [4]), the EC50 is more than 10000 nM.

(Values after US10030016B2 (Sunesis Pharmaceuticals, Inc., priority 2009, dated 2018).)
